# In patent US9303035B2, “Substituted pyrazino[1′,2′:1,2]pyrrolo[3,4-d]pyrimidines, pyrimido[4′,5′:3,4]pyrrolo[2,1-c][1,4]oxazines and pyrimido[4′,5′:3,4]pyrrolo[1,2-d][1,4]oxazepines for inhibiting the CFTR channel” (Novartis AG, priority 2012, dated 2016):
# Biological target: CFTR (WT-CFTR channels stably expressed in CHO cells) (Homo sapiens (Human), UniProt P13569)
# Assay: IonWorks Quattro CFTR inhibitor assay (whole-cell population patch clamp, forskolin-activated current)
# Type: cell-based
# Details: inward current (−100 mV); CHO cells stably expressing WT-CFTR; CFTR activated with 10 μM forskolin; 10 min compound incubation
# Excerpt: CFTR activity can be quantified by electrophysiology methods, using the whole-cell configuration of the patch clamp technique (Hamill O, Marty A, Neher E, Sakmann B and Sigworth F. ‘Improved patch-clamp techniques for high resolution current recording from cells and cell-free membrane patches.’ Pflugers Archive 1981 391: 85-100). This assay directly measures the currents associated with chloride flow through CFTR channels whilst either maintaining or adjusting the transmembrane voltage. This assay can use either single glass micropipettes or parallel planar arrays to measure CFTR activity from native or recombinant cell systems. Currents measured using parallel planar arrays can be quantified using an appropriately equipped instrument such as the IonWorks Quattro (Molecular Devices Corporation, Sunnyvale, Calif.). The Quattro system can measure CFTR currents from either a single cell per recording well (HT configuration) or alternatively from a population of 64 cells per well (Population Patch Clamp PPC) (Finkel A, Wittel A, Yang N, Handran S, Hughes J, Costantin J. ‘Population patch clamp improves data consistency and success rates in the measurement of ionic currents.’ J Biomol Screen. 2006 August; 11(5):488-96).
# Chinese hamster ovary (CHO) cells stably expressing WT-CFTR channels were used for the IonWorks Quattro experiments. Cells were maintained at 37° C. in 5% v/v CO2 at 100% humidity in MEM alpha medium supplemented with 10% (v/v) FCS, 100 U/mL Penicillin/Streptomycin, and 100 μg/L methotrexate. For experiments, cells were grown in 225 cm^2 tissue culture flasks until almost confluent. Cells were removed from the flask using trypsin-EDTA and resuspended in extracellular recording solution for immediate experimentation.
# Cells, at a density of 1.5-2 million per mL, were placed on the Quattro system, added to the planar patch plate and seals allowed to establish for 5-10 mins. After assessing seal resistances (typically >50 MΩ), whole-cell access was obtained by perforation with 100 μg/mL amphotericin B. Baseline currents were measured by a pre-compound scan obtained by application of a voltage ramp from −100 to +100 mV. CFTR was activated by the addition of 10 μM forskolin to each of the 384 wells of the patch plate. After 5 min incubation the post-compound 1 currents were measured, again by application of a voltage ramp from −100 to +100 mV. Test compounds, diluted from 10 mM stocks in DMSO in extracellular solution were then added to the patch plate and were incubated for a further 10 min. The post-compound 2 currents were measured by the application of the same voltage ramp from −100 to +100 mV. The inhibition of CFTR was determined from the difference in current between the forskolin addition (post-compound 1) and the test compound (post-compound 2). This was determined at both −100 mV and +100 mV which represents the inward and outward current respectively.
# Extracellular solution (ECS): 145 mM NaCl, 4 mM CsCl, 5 mM D-glucose, 10 mM TES, 1 mM CaCl2, 1 mM MgCl2, pH 7.4 NaOH
# Intracellular solution (ICS): 113 mM L-Aspartic acid, 113 mM CsOH, 27 mM CsCl, 1 mM NaCl, 1 mM MgCl2, 1 mM EGTA, 10 mM TES. pH 7.2 with CsOH. Filter sterilized before use.
# Sequence of CFTR (WT-CFTR channels stably expressed in CHO cells) (P13569 whole entry): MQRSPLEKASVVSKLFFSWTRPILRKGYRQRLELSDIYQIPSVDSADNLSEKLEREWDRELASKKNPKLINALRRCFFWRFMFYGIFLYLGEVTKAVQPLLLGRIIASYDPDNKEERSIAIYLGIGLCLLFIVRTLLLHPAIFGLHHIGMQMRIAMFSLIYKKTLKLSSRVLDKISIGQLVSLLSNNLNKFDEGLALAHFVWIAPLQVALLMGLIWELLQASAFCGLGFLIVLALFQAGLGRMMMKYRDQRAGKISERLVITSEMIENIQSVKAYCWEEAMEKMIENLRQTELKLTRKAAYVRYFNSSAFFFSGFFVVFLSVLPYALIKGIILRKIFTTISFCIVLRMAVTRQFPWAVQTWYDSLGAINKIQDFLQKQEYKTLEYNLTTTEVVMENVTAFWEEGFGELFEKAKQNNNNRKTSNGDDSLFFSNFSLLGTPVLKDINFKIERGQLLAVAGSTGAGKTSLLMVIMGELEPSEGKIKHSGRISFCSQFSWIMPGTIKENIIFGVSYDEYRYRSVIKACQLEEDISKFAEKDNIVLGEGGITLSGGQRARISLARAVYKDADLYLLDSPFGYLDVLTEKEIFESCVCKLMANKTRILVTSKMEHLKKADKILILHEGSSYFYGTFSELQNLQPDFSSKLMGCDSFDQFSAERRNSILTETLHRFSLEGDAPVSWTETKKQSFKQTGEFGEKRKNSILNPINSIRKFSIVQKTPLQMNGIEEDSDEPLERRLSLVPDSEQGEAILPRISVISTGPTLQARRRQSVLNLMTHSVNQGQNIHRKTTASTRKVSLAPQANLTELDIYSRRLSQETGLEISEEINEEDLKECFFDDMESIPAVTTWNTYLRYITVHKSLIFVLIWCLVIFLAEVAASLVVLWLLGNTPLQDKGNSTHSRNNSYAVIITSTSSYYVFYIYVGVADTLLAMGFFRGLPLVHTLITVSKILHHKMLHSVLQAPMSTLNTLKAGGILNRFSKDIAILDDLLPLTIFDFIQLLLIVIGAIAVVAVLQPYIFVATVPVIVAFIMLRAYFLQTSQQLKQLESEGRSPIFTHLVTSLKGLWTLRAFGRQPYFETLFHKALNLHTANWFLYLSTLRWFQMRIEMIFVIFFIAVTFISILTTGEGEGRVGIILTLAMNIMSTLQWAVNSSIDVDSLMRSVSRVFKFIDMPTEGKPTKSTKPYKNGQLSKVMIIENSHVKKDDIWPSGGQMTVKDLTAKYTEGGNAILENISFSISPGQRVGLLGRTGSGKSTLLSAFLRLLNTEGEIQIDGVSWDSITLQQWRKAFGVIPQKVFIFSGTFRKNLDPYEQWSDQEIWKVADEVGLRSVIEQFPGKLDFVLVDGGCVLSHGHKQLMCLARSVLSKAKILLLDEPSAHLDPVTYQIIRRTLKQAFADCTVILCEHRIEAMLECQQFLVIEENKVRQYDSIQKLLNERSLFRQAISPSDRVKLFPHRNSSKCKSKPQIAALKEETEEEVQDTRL
row,SMILES,IC50 [µM]
1,"Cc1ccc(C2NCCn3c(-c4ccccc4)c4c(=O)n(C)c(=O)n(C)c4c32)o1 (racemic) [Example 1.1, 1,3-Dimethyl-10-(5-methylfuran-2-yl)-5-phenyl-7,8,9,10-tetrahydropyrazino[1′,2′:1,2]pyrrolo[3,4-d]pyrimidine-2,4(1H,3H)-dione]",4.64
2,"Cc1ccc([C@H]2NCCn3c(-c4ccccc4)c4c(=O)n(C)c(=O)n(C)c4c32)o1 (single isomer, unassigned) [Example 1.3]",> 30
3,"Cn1c(=O)c2c(-c3ccccc3)n3c(c2n(C)c1=O)C(c1nc(C(F)(F)F)cs1)NCC3 (single isomer, unassigned) [Example 2.4, 1,3-Dimethyl-5-phenyl-10-(4-(trifluoromethyl)thiazol-2-yl)-7,8,9,10-tetrahydropyrazino[1′,2′:1,2]pyrrolo[3,4-d]pyrimidine-2,4(1H,3H)-dione]",4.98
4,"Cn1c(=O)c2c(-c3ccccc3)n3c(c2n(C)c1=O)C(C1CCCCC1)NCC3 (single isomer, unassigned) [Example 2.6, 10-Cyclohexyl-1,3-dimethyl-5-phenyl-7,8,9,10-tetrahydropyrazino[1′,2′:1,2]pyrrolo[3,4-d]pyrimidine-2,4(1H,3H)-dione]",7.62
5,"Cn1c(=O)c2c(-c3cccc(C#N)c3)n3c(c2n(C)c1=O)C(c1ccc(Cl)o1)NCC3 (single isomer, unassigned) [Example 2.9, 3-(10-(5-chlorofuran-2-yl)-1,3-dimethyl-2,4-dioxo-1,2,3,4,7,8,9,10-octahydropyrazino[1′,2′:1,2]pyrrolo[3,4-d]pyrimidin-5-yl)benzonitrile]",0.59
6,"Cn1c(=O)c2c(-c3nc(CO)cs3)n3c(c2n(C)c1=O)C(c1ccc(Cl)o1)O[C@@H](CO)C3 (single isomer, unassigned) [Example 7.1a, 10-(5-Chlorofuran-2-yl)-8-(hydroxymethyl)-5-(4-(hydroxymethyl)thiazol-2-yl)-1,3-dimethyl-7,8-dihydro-1H-pyrimido[4′,5′:3,4]pyrrolo[2,1-c][1,4]oxazine-2,4(3H,10H)-dione]",0.61
7,"Cc1csc(-c2c3c(=O)n(C)c(=O)n(C)c3c3n2C[C@H](CO)O[C@H]3c2ccc(Cl)o2)n1 (stereo in doubt) [Example 7.0a, 10-(5-chlorofuran-2-yl)-8-(hydroxymethyl)-1,3-dimethyl-5-(4-methylthiazol-2-yl)-7,8-dihydro-1H-pyrimido[4′,5′:3,4]pyrrolo[2,1-c][1,4]oxazine-2,4(3H,10H)-dione]",0.09
8,"Cn1c(=O)c2c(-c3cccc(Cl)c3)n3c(c2n(C)c1=O)[C@H](c1nc(Cl)cs1)O[C@@H](CO)C3 (stereo in doubt) [Example 8.0a, 5-(3-Chlorophenyl)-10-(4-chlorothiazol-2-yl)-8-(hydroxymethyl)-1,3-dimethyl-7,8-dihydro-1H-pyrimido[4′,5′:3,4]pyrrolo[2,1-c][1,4]oxazine-2,4(3H,10H)-dione]",0.07
9,"Cn1c(=O)c2c(-c3cccc(Cl)c3)n3c(c2n(C)c1=O)[C@H](c1ccc(Cl)o1)O[C@@H](CO)C3 (stereo in doubt) [Example 8.1a, 10-(5-Chlorofuran-2-yl)-5-(3-chlorophenyl)-8-(hydroxymethyl)-1,3-dimethyl-7,8-dihydro-1H-pyrimido[4′,5′:3,4]pyrrolo[2,1-c][1,4]oxazine-2,4(3H,10H)-dione]",0.12
10,"Cc1ccc([C@@H]2NCCn3c(-c4ccccc4)c4c(=O)n(C)c(=O)n(C)c4c32)o1 [Example 1.2, (R)-1,3-Dimethyl-10-(5-methylfuran-2-yl)-5-phenyl-7,8,9,10-tetrahydropyrazino[1′,2′:1,2]pyrrolo[3,4-d]pyrimidine-2,4(1H,3H)-dione]",1.58
11,"Cn1c(=O)c2c(-c3ccccc3)n3c(c2n(C)c1=O)C(c1nccs1)NCC3 (stereo not shown) [Example 1.7, 1,3-Dimethyl-5-phenyl-10-(thiazol-2-yl)-7,8,9,10-tetrahydropyrazino[1′,2′:1,2]pyrrolo[3,4-d]pyrimidine-2,4(1H,3H)-dione]",5.42
12,"Cn1c(=O)c2c(-c3ccccc3)n3c(c2n(C)c1=O)C(c1nc(C(F)(F)F)cs1)NCC3 (stereo not shown) [Example 1.9, 1,3-Dimethyl-5-phenyl-10-(4-(trifluoromethyl)thiazol-2-yl)-7,8,9,10-tetrahydropyrazino[1′,2′:1,2]pyrrolo[3,4-d]pyrimidine-2,4(1H,3H)-dione]",6.31
13,"CCc1ccc(C2NCCn3c(-c4ccccc4)c4c(=O)n(C)c(=O)n(C)c4c32)o1 (stereo not shown) [Example 1.10, 10-(5-Ethylfuran-2-yl)-1,3-dimethyl-5-phenyl-7,8,9,10-tetrahydropyrazino[1′,2′:1,2]pyrrolo[3,4-d]pyrimidine-2,4(1H,3H)-dione]",6.37
14,"Cn1ccc(C2NCCn3c(-c4ccccc4)c4c(=O)n(C)c(=O)n(C)c4c32)n1 (stereo not shown) [Example 1.12, 1,3-Dimethyl-10-(1-methyl-1H-pyrazol-3-yl)-5-phenyl-7,8,9,10-tetrahydropyrazino[1′,2′:1,2]pyrrolo[3,4-d]pyrimidine-2,4(1H,3H)-dione]",10.8

# Other lines, results leading:
row,IC50 [µM],SMILES
1,4.23,"Cc1ccc(C2OCCn3c(-c4ccccc4)c4c(=O)n(C)c(=O)n(C)c4c32)o1 (racemic) [Example 4.1, 1,3-Dimethyl-10-(5-methylfuran-2-yl)-5-phenyl-7,8-dihydro-1H-pyrimido[4′,5′:3,4]pyrrolo[2,1-c][1,4]oxazine-2,4(3H,10H)-dione]"
2,> 30,"Cc1ccc(C2OCCn3c(-c4ccccc4)c4c(=O)n(C)c(=O)n(C)c4c32)o1 (single isomer, unassigned) [Example 4.2, 1,3-dimethyl-10-(5-methylfuran-2-yl)-5-phenyl-7,8-dihydro-1H-pyrimido[4′,5′:3,4]pyrrolo[2,1-c][1,4]oxazine-2,4(3H,10H)-dione]"
3,3.16,"Cc1ccc(C2OCCn3c(-c4ccccc4)c4c(=O)n(C)c(=O)n(C)c4c32)o1 (single isomer, unassigned) [Example 4.3, 1,3-dimethyl-10-(5-methylfuran-2-yl)-5-phenyl-7,8-dihydro-1H-pyrimido[4′,5′:3,4]pyrrolo[2,1-c][1,4]oxazine-2,4(3H,10H)-dione]"
4,8.06,"Cn1c(=O)c2c(-c3cccc(C#N)c3)n3c(c2n(C)c1=O)[C@@H](c1nc(Cl)cs1)O[C@H](CO)C3 (single isomer, unassigned) [Example 9b, 3-(10-(4-Chlorothiazol-2-yl)-8-(hydroxymethyl)-1,3-dimethyl-2,4-dioxo-2,3,4,7,8,10-hexahydro-1H-pyrimido[4′,5′:3,4]pyrrolo[2,1-c][1,4]oxazin-5-yl)benzonitrile]"
5,0.24,"Cn1c(=O)c2c(-c3cccc(C#N)c3)n3c(c2n(C)c1=O)[C@H](c1ccc(Cl)o1)O[C@@H](CO)C3 (stereo in doubt) [Example 6.1, 3-(10-(5-chlorofuran-2-yl)-8-(hydroxymethyl)-1,3-dimethyl-2,4-dioxo-2,3,4,7,8,10-hexahydro-1H-pyrimido[4′,5′:3,4]pyrrolo[2,1-c][1,4]oxazin-5-yl)benzonitrile]"
6,5.07,"Cc1cccc(-c2c3c(=O)n(C)c(=O)n(C)c3c3n2C[C@H](C)O[C@H]3c2ccc(Cl)o2)c1 (stereo in doubt) [Example 12.1, 10-(5-chlorofuran-2-yl)-1,3,8-trimethyl-5-(m-tolyl)-7,8-dihydro-1H-pyrimido[4′,5′:3,4]pyrrolo[2,1-c][1,4]oxazine-2,4(3H,10H)-dione]"
7,0.24,"COC[C@@H]1Cn2c(-c3cccc(Cl)c3)c3c(=O)n(C)c(=O)n(C)c3c2[C@H](c2ccc(Cl)o2)O1 (stereo in doubt) [Example 12.2, 10-(5-chlorofuran-2-yl)-5-(3-chlorophenyl)-8-(methoxymethyl)-1,3-dimethyl-7,8-dihydro-1H-pyrimido[4′,5′:3,4]pyrrolo[2,1-c][1,4]oxazine-2,4(3H,10H)-dione]"
8,0.54,"CN(C)C[C@@H]1Cn2c(-c3cccc(Cl)c3)c3c(=O)n(C)c(=O)n(C)c3c2[C@H](c2ccc(Cl)o2)O1 (stereo in doubt) [Example 12.4, 10-(5-chlorofuran-2-yl)-5-(3-chlorophenyl)-8-((dimethylamino)methyl)-1,3-dimethyl-7,8-dihydro-1H-pyrimido[4′,5′:3,4]pyrrolo[2,1-c][1,4]oxazine-2,4(3H,10H)-dione]"
